This note sets out measurements from patent US20160115225A1, “Methods of Reducing Methylglyoxal (MGO) Modification of Recombinant Proteins in Cell Culture” (AbbVie Inc., priority 2014, published 2016).

SMILES strings stand for the structures.

The subject of the assay is adalimumab producing cell line 1. The experiment in a line: WCX-10 quantification of acidic species of adalimumab, bioreactor culture, cell line 1. Type of assay: cell-based. The method, then:
Two adalimumab producing cell lines were employed in the studies covered here. Upon thaw, cells were cultured in their respective growth media in a combination of vented non-baffled shake flasks (Corning) on a shaker platform at 110 RPM (cell line 1) and 140 RPM (cell line 2) and 10 L or 20 L wave bags (GE). Cultures were propagated in a 35° C., 5% CO2 incubator for cell line 1 and 36° C., 5% CO2 incubator for cell line 2 to obtain the required number of cells to be able to initiate production stage cultures. For the bioreactor (3 L Applikon) experiments (Examples 1, 2 and 3), 3 L, bioreactors (1.5 L working volume) were initiated at 35° C. (cell line 1) and 36° C. (cell line 2), 30% DO, 200 rpm, pH of 7.1. In some of the conditions, pH was ramped down to 6.8 in three days and kept at pH 6.8 thereafter. The inclusion of pH ramp for a particular condition is indicated by the final pH in the experimental design. If the final pH is 7.1, then it indicates no pH ramp was performed, whereas if the final pH is 6.8, a pH ramp was performed on day 3 from pH 7.1 to pH 6.8. In some of the conditions, a temperature shift was performed. When temperature shift was performed, the temperature was lowered to 33° C. Again, the conditions where such a temperature shift was performed can be identified from the final temperature in the experimental design. Cultures were run in extended batch mode with the addition of a desired amount of 40% glucose stock solution was fed based on glucose measurements. The harvest procedure of the reactors involved centrifugation of the culture sample at 3,000 RPM for 30 min and storage of supernatant in PETG bottles at −80° C. before submission for protein A purification, WCX-10 analysis and Lys-C peptide mapping. This method is employed towards the quantification of the acidic species and other charge variants present in cell culture harvest samples. Cation exchange chromatography was performed on a Dionex ProPac WCX-10, Analytical column (Dionex, Calif.). The mobile phases used were 10 mM Sodium Phosphate dibasic pH 7.5 (Mobile phase A) and 10 mM Sodium Phosphate dibasic, 500 mM Sodium Chloride pH 5.5 (Mobile phase B). A binary gradient (94% A, 6% B: […]; 84% A, 16% B: 20-22 min; 0% A, 100% B: 22-28 min; 94% A, 6% B: 28-34 min) was used with detection at 280 nm. Quantitation is based on the relative area percent of detected peaks. The peaks that elute at relative residence time earlier than the main peak corresponding to the drug product are together represented as the acidic peaks. Cell line 1 was cultured in IVGN production medium supplemented with or without 2DDG (0.25 g/l). Prior to this experiment, a study was performed in a shake flask culture to evaluate the dose effect of 2DDG on this cell line and optimize a dose range of reactor evaluation (data not shown). In this experiment, the cultures were performed in 3 L bioreactors in batch format (pH 7.1, DO—30%, 200 rpm) with only glucose feed as described in Example 1. Temperature shift was implemented in some tests (35° C. to 33° C. on day 5 of culture). Both 2DDG supplementation and temperature shift were employed as methods to reduce glucose consumption of the cells in culture. The hypothesis was that the reduction in glucose consumption will translate into reduced synthesis of MGO in cell culture. As a result, a reduction in MGO modification and acidic species of the protein would be achieved. In this experiment, the cultures were performed in 3 L bioreactors in batch format (DO—30%, 200 rpm) with only glucose feed as described in the materials and methods. The control condition was run at a constant temperature of 35° C., constant pH of 7.1 without any supplementation of 2DDG or arginine (condition #10). […]

For the compound `O=CC[C@@H](O)[C@H](O)[C@H](O)CO` [Test 2DDG, 2-Deoxy-D-Glucose], the “percentage of acidic species” value is, setting by setting: (Example 2, 2DDG 0.25 g/l with temperature shift 35° C. to 33° C. on day 5, Day 10 harvest, control 26.6%) 17.4%; (Example 2, 2DDG 0.25 g/l, no temperature shift, Day 10 harvest, control 26.6%) 22.9%; (Example 3, 2DDG 0.25 g/l alone, day 11 harvest, control 68.4%) 48.5%; (Example 3, 2DDG 0.25 g/l and temperature shift, day 11 harvest, control 68.4%) 22.7%; (Example 3, 2DDG, temperature shift and arginine supplementation (4 g/l), day 11 harvest) 12.6%; (Example 3, 2DDG, temperature shift and lower pH (6.8), day 11 harvest) 15.2%. Further, for the setting “Example 3, 2DDG, temperature shift, lower pH and arginine supplementation, day 11 harvest”, the “percentage of acidic species” value was found to be 12.0%.
